This is an account of results in EP2261258A1, “MCSP-aligned scFv antibody fragments and use of same” (Schuler, Gerold, priority 2009, dated 2010).

For experiment [1] the following is noted: melanoma patients, cited from earlier work.
The subject of a further experiment is AML. Conditions: Bross et al. 2001; cited from earlier work.
The target of experiment [2] is Melanom-assoziiertes Chondroitinsulfat Proteoglykan (MCSP) (human) (UniProt Q6UVK1). Briefly: flow cytometry, saturation binding on A2058 melanoma cells, half-maximal saturation concentration. (In general: A flow cytometer gives signals particle by particle.)
The target is the same in experiment [3]. The experiment is described as follows: ratio of KD values, flow cytometry on A2058 cells.

Read-outs that look alike come from different tables or passages of the source.

With `CN(C)/N=N/c1[nH]cnc1C(N)=O` [Dacarbazin, Dimethyl-trizeno-imidazol-Carboxamid], the Ansprechraten in experiment [1] (according to newer studies (Avril et al. 2004)) is recorded as about 7%; in experiment [1] (as given in most studies), 10 - 20%.
As to “GO: gegen CD33 gerichteter humanisierter Antikörper gekoppelt an Calicheamycin”, in the experiment on AML, the “Patienten, die ansprechen” value was about 30% and the “mittlere rückfallfreie Überlebenszeit” value is on record as 6,8 Monate.

B1: scFv-Fragment MCSP HL (scFv)
scFv: MADYKQVKLQQSGPELVKPGASVKISCKASGYAFSRSWMNWVKQRPGQGLEWIGRIYPGDGDTNYNGKFKGKATLTADKSSSTAYMQVSSLTSVDSAVYFCARGNTVVVPYTMDYWGQGTTVTVSSGGGGSGGGGSGGGGSDIELTQSPASLAVSLGQRATISCRASESVDSYGNSFMHWYQQKPGQPPKLLIYLASNLESGVPARFSGSGSRTDFTLTIDPVEADDAATYYCQQNNEDPLTFGGGTKLELKRSASGADHHHHHH
As a reminder, the Kd is the constant that tells how readily two partners part at equilibrium. A lower Kd goes with a tighter complex. In the case of B1, the Kd in experiment [2] came to 1.65 nM. Also, the fold improvement of affinity against the original scFv MCSP in experiment [3] is 14 fold.

B2: scFv-Fragment MCSP (scFv)
scFv: MADYKDIVMTQSPASLAVSLGQRATISCRASESVDSYGNSFMHWYQQKPGQPPKLLIYLASNLESGVPARFSGSGSRTDFTLTIDPVEADDAATYYCQQNNEDPLTFGSGTKLETKRGGGGSGGGGSGGGGSGGGGSQVQLKQSGPELVKPGASVKISCKASGYAFSRSWMNWVKQRPGQGLEWIGRIYPGDGDTNYNGKFKGKATLTADKSSSTAYMQVSSLTSVDSAVYFCARGNTVVVPYTMDYWGQGTSVTVPSASGADHHHHHH
B2 gave an equilibrium dissociation constant (Kd) in experiment [2] of 23.3 nM. That is a double-digit nanomolar value.
